Assay results: US11298367B2, “Prodrugs of substituted triazole derivatives and uses thereof” (Bayer Aktiengesellschaft, priority 2017, dated 2022)
Values after ≈ are worked out from the molar mass of the structure shown. Where two headings read alike, the source gives them in different places.

Assays:
Solubility = format: physicochemical; details: 24 h room temperature, max. 500 μg/ml; for solubility at 24 h: thermodynamic from solid
Procedure: For each substance 0.5-0.6 mg are weighed exactly. In each case, sufficient medium is added to the sample in such a way that a concentration of c=500 μg/ml is obtained. This sample solution is shaken for 24 h at room temperature and 1400 rpm.
A further sample weight of 0.5-0.6 mg is required for the DMSO calibration solution. This sample is filled with DMSO to a concentration of c=600 μg/ml. Two calibration solutions are prepared from this stock solution. In a 2 ml HPLC vial, 1000 μl of DMSO are initially introduced and 34.4 μl of the stock solution are pipetted (c=20 µg/ml). […] of this solution (c=20 μg/ml) are placed in a further 2 ml HPLC vial containing 500 μl of DMSO (c=2.5 μg/ml).
After shaking the test solutions, 230 μl of the supernatant are transferred into a centrifuge tube and centrifuged at 42 000 rpm (223 000 g) for 30 min. 180 μl of the supernatant are then taken and each diluted with DMSO (1:5 sample 1; 1:100 sample 2), and transferred to HPLC vials. The two calibration solutions and the dilute sample solutions are analyzed by HPLC. Quantification is performed over the corresponding peak areas.
Distilled water; trifluoroacetic acid (Merck; 1.08262.0100); acetonitrile (HPLC grade); DMSO (Merck; 8.02912.2500).
Fluka buffer, Order No. 33643 (11.76 g citric acid, 2.57 g sodium chloride and 2.72 g sodium hydroxide).
Fluka buffer, Order No. 33646 (3.52 g potassium dihydrogenphosphate, 7.26 g sodium hydrogen phosphate).
Solution of 6.18 g sodium chloride and 3.96 g sodium dihydrogen phosphate in 1 L distilled water, adjust with 1M aqueous sodium hydroxide solution to pH 7.4.
0.6057 g TRIS was dissolved in 95 ml water, adjust to pH 8.5 with aqueous hydrochloric acid, fill with water until 100 ml volume is reached.

pH stability = format: physicochemical
Procedure: 0.15 mg of the test compound is dissolved in 0.1 ml dimethylsulfoxide and 0.4 ml acetonitrile. For complete dissolution the HPLC vial with the sample solution is shaken and treated with ultrasonic irradiation. Then 1.0 ml of the respective buffer solution is added and the sample is vortexed. The sample solution is analyzed by HPLC to determine the amount of the test compound at a particular time over a period of 24 h at 37° C. The peak areas in percentage are used for quantification.
pH 4.0: Fluka buffer, Order No. 33643 (11.76 g citric acid, 2.57 g sodium chloride and 2.72 g sodium hydroxide).
pH 7.4: 90 g of sodium chloride, 13.61 g of potassium dihydrogen phosphate and 83.35 g of 1 M sodium hydroxide solution are made up to 1 litre with Millipore water and then diluted 1:10. Adjust with phosphoric acid to pH=7.4.
pH 10: Fluka buffer, Order No. 33649 (4.77 g Borax, 0.73 g sodium hydroxide).
15 μl portions of the sample solution are analysed by HPLC at different times (0 h, 1 h, 2 h, 4 h and 24 h) at 37° C. The peak areas in percentage are used for quantification.
The ratios of the peak area (F) at different times in relation to the peak area at the starting point are shown in Table 8A for representative examples: […]

human V1a receptor = target: T1, human V1a receptor (Homo sapiens, UniProt P37288); assay: Cellular in vitro assay for verification of prodrug conversion into drug (with/without alkaline phosphatase); format: cell-based; details: human V1a CHO cells
T1 construct: expressed in transfected cells; host or cells: CHO K1 (Chinese hamster ovary), also stably transfected with a modified aequorin
T1 sequence (P37288 whole entry): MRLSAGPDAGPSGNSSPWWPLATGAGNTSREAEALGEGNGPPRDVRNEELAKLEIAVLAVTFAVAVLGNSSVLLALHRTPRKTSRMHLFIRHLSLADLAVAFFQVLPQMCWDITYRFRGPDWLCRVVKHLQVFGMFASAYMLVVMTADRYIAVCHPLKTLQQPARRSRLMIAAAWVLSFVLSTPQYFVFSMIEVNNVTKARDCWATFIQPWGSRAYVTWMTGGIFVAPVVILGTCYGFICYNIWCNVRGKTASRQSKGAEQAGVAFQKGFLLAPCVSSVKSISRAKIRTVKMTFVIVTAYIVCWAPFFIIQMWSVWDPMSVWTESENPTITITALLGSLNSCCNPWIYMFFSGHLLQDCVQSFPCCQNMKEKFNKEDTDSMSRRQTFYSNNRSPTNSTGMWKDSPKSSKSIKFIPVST
Procedure: B-4. Cellular In Vitro Assay for Verification of Prodrug Conversion into Drug
To verify the conversion of prodrugs into the respective drugs, the prodrugs are incubated with and without alkaline phosphatase. Cleavage of the phosphate moiety by alkaline phosphatase converts the prodrug into the underlying respective drug [Coleman J. E., Annu. Rev. Biophys. Biomol. Struct. 1992, 21, 441-483]. As prodrug and underlying respective drug show different IC50 values, the value of the prodrug after alkaline phosphatase treatment resembles the IC50 of the respective drug. The determination of IC50 values of compounds of the invention at the human V1a receptor is carried out using a recombinant cell line. The cell line originally derives from a hamster's ovary epithelial cell (Chinese Hamster Ovary, CHO K1, ATCC: American Type Culture Collection, Manassas, Va. 20108, USA). The test cell line constitutively expresses the human V1a receptor. Cells are also stably transfected with a modified form of the calcium-sensitive photoprotein aequorin which, after reconstitution with the cofactor coelenterazine, emits light upon increase in free calcium concentration [Rizzuto R, Simpson A W, Brini M, Pozzan T, Nature 358, 325-327 (1992); Illarionov B A, Bondar V S, Illarionova V A, Vysotski E S, Gene 153 (2), 273-274 (1995)]. The resulting vasopressin receptor cell reacts to stimulation of the recombinantly expressed V1a receptor by intracellular release of calcium ions, which can be quantified by the resulting luminescence of photoprotein. The bioluminescence of the cell line is detected using a suitable luminometer [Milligan G, Marshall F, Rees S, Trends in Pharmacological Sciences 17, 235-237 (1996)].
On the day before the assay, the cells are seeded in culture medium (DMEM/F12, 2% FCS, 2 mM glutamine, 10 mM HEPES, 5 μg/ml coelenterazine) in 384-well microtiter plates and kept in a cell incubator (96% humidity, 5% v/v CO2, 37C). On the day of the assay, 100 μl of test compounds at a concentration of 100 μM are incubated for 15 minutes with 500 units alkaline phosphatase at 37° C. in tyrode buffer (20 mM HEPES, 130 mM NaCl, 5 mM KCl, 5 mM NaHCO3, 2 mM MgCl2, pH 7,4). After incubation compounds are immediately diluted and placed for 10 minutes at 37° C. on the before seeded V1a cells. For detection of antagonistic activity of the compounds [Arg^8]-vasopressin at EC50 concentration is added and the resulting light signal is measured immediately in a luminometer.

[1] = Tris buffer pH 8.5, pH 8.5, aqueous buffer, pH = 8.5 Tris buffer
[2] = citrate buffer pH 4, pH 4, aqueous buffer, pH = 4 citrate buffer
[3] = phosphate buffer pH 7, pH 7, aqueous buffer, pH = 7.0 buffer
[4] = pre-incubation 15 min with 500 units alkaline phosphatase at 37° C., read-out: IC50 with AP
[5] = without alkaline phosphatase, read-out: IC50 without AP

Row | SMILES | solubility at 24 h (Solubility; [1]) [mg/mL] | solubility at 24 h (Solubility; [2]) [mg/mL] | solubility at 24 h (Solubility; [3]) [mg/mL] | % Test Compound after 4 h [F(t = 4 h) × 100/F(t = 0 h)] (pH stability; buffer pH 4, 37° C.) [%] | % Test Compound after 24 h [F(t = 24 h) × 100/F(t = 0 h)] (pH stability; buffer pH 4, 37° C.) [%] | % Test Compound after 4 h [F(t = 4 h) × 100/F(t = 0 h)] (pH stability; buffer pH 7.4, 37° C.) [%] | % Test Compound after 24 h [F(t = 24 h) × 100/F(t = 0 h)] (pH stability; buffer pH 7.4, 37° C.) [%] | IC50 (human V1a receptor; [4]) [nM] | IC50 (human V1a receptor; [5]) [nM] | % Test Compound after 4 h [F(t = 4 h) × 100/F(t = 0 h)] (pH stability; buffer pH 10, 37° C.) [%] | % Test Compound after 24 h [F(t = 24 h) × 100/F(t = 0 h)] (pH stability; buffer pH 10, 37° C.) [%] | Solubility (Solubility; pH = 7.0 buffer)
1 | NC(=O)c1nc(Cn2nc(-c3ccc(Cl)cc3)n(C[C@H](OP(=O)(O)O)C(F)(F)F)c2=O)nn1-c1ccccc1C(F)(F)F [Example 10, (2S)-3-[1-({5-Carbamoyl-1-[2-(trifluoromethyl)phenyl]-1H-1,2,4-triazol-3-yl}methyl)-3-(4-chlorophenyl)-5-oxo-1,5-dihydro-4H-1,2,4-triazol-4-yl]-1,1,1-trifluoropropan-2-yl Dihydrogen Phosphate] | 0.479 | 0.454 | > 0.5 | 100 | 100 | 100 | 100 | 1.3 | 11 |  |  | 
2 | NC(=O)c1nc(Cn2nc(-c3ccc(Cl)cc3)n(C[C@H](OP(=O)(O)O)C(F)(F)F)c2=O)nn1-c1ncccc1C(F)(F)F [Example 1, (2S)-3-[1-({5-Carbamoyl-1-[3-(trifluoromethyl)pyridin-2-yl]-1H-1,2,4-triazol-3-yl}methyl)-3-(4-chlorophenyl)-5-oxo-1,5-dihydro-4H-1,2,4-triazol-4-yl]-1,1,1-trifluoropropan-2-yl Dihydrogen Phosphate] | > 0.5 | > 0.5 | > 0.5 | 100 | 100 | 99 | 99 | 1.45 | 13.1 | 99 | 98 | 
3 | NC(=O)c1nc(Cn2nc(-c3ccc(Cl)cc3)n(C[C@H](O)C(F)(F)F)c2=O)nn1-c1ncccc1C(F)(F)F [Example 4A, 3-({3-(4-Chlorophenyl)-5-oxo-4-[(2S)-3,3,3-trifluoro-2-hydroxypropyl]-4,5-dihydro-1H-1,2,4-triazol-1-yl}methyl)-1-[3-(trifluoromethyl)pyridin-2-yl]-1H-1,2,4-triazole-5-carboxamide] | 0.0067 (≈ 11.6 µM) | 0.0087 (≈ 15.1 µM) |  |  |  |  |  | 1.35 | 1.25 |  |  | not detectable
4 | NC(=O)c1nc(Cn2nc(-c3ccc(Cl)cc3)n(C[C@H](OP(=O)(O)O)C(F)(F)F)c2=O)nn1-c1ncccc1Cl [Example 17, (2S)-3-[1-{[5-Carbamoyl-1-(3-chloropyridin-2-yl)-1H-1,2,4-triazol-3-yl]methyl}-3-(4-chloro-phenyl)-5-oxo-1,5-dihydro-4H-1,2,4-triazol-4-yl]-1,1,1-trifluoropropan-2-yl Dihydrogen Phosphate] | > 0.5 | > 0.5 | > 0.5 | 100 | 100 | 100 | 100 | 1.03 | 9.45 |  |  | 
